According to US20250129334A1, “LINEAGE SPECIFICATION DURING STEM CELL TRANSITION” (Amniotics AB, priority 2021, published 2025):

Tests used:
LT-HSCs = experiment: CFU assay of LT-HSCs sorted from fetal livers of treated embryos; type: in vivo, mice; details: DCA-treated embryos vs control and UK5099
Procedure: For fetal liver analysis, pregnant female C57Bl/6xB6.SJL mice were injected intraperitoneally at E9.5 with UK5099 (4 mg/kg) or DCA (200 mg/kg) or PBS (control). Embryos were harvested at E14.5 and individually weighed and processed. Fetal livers were dissected and homogenised in 800 μL ice cold PBS supplemented with 2% fetal bovine serum (FBS) and FL cells were washed in PBS with 2%/FBS. For the differentiated lineage panel, cells were stained with B220 and CD19 (B-cell markers)-PE, CD3e-APC, Ter119-PeCy7 and CD71-FITC and analyzed on a BD FACSARIA III. For the HSC panel, samples were first treated with ammonium chloride solution (STEMCELL Technologies, France) to lyse red blood cells, washed twice in ice cold PBS with 2% FBS, stained with CD3e, B220, Ter119, Gr1 (Lineage)-PeCy5, c-Kit-Efluor780, Sca1-BV421, CD48-FITC, CD150-BV605 and 7-AAD (for dead cell exclusion) and analyzed on a BD FACSARIA III. […] For plating of CFU assays, 100 LT-HSCs were sorted (gating strategy shown in FIG. 11, e) and resuspended in 3.0 mL Methocult M3434 (STEMCELL Technologies, France). Each mixture was divided onto 2 wells of a non-tissue culture treated 6-well plate. Following a 14-day incubation in a humidified incubator at 37° C., 5% CO2, 20% O2, colonies were morphologically distinguished and scored. […] Cells were stained with anti-cKit and anti-CD45 antibodies and analyzed on a BD LSRFortessa. […]

EHT cells = experiment: EHT cell subculture with metabolic regulators, flow cytometry; type: cell-based, human; details: UK5099 10 μM
Source text: The RB9-CB1 human iPSC line (Woods, N.-B. et al. Brief report: efficient generation of hematopoietic precursors and progenitors from human pluripotent stem cell lines. Stem Cells 29, 1158-1164 (2011)) was co-cultured with mouse embryonic fibroblasts (MEFs, Millipore), passaged every six days and processed to form embryoid bodies (EBs) as described previously (Guibentif, C. et al. Single-Cell Analysis Identifies Distinct Stages of Human Endothelial to-Hematopoietic Transition. Cell Reports 19, 10-19 (2017)). The differentiation protocol used in this study was previously described (Ditadi, A. & Sturgeon, C. M. Directed differentiation of definitive hemogenic endothelium and hematopoietic progenitors from human pluripotent stem cells. Methods 101, 65-72 (2016)), however, small modifications were made to induce both primitive and definitive hematopoiesis, as indicated below and in FIG. 6, a. Newly-formed EBs were first kept in SFD medium supplemented with 1 ng/ml Activin A (on days 0-2) and 3 μM CHIR99021 (on day 2 only). At day 3, media was switched to “Day 3-SP34” medium supplemented with 1 ng/ml Activin A (on day 3 only) and 3 μM CHIR99021 (on day 3 only) until day 6. On day 6, media was replaced by “Day 6-SP34” medium, until day 8. In some experiments where indicated, to obtain a higher yield of HSC-like cells, EBs were kept until day 10: in this case, EBs were plated onto Matrigel (8 μg/cm2, Corning)-coated dishes on day 8 and kept until day 10. Media was changed every day, except on days 5 and 7. On day 8 or 10 (as indicated), EBs were singularized with 5-6 rounds of 5-minute incubations with TryPLE Express (Thermo Fisher Scientific). […]

For `O=C(O)C(Cl)Cl` [DCA, dichloroacetate], the “decrease in the BFU-E to CFU-GM ratio” value (LT-HSCs) was 80%.

In the case of `N#CC(=Cc1cn(-c2ccccc2)c2ccccc12)C(=O)O` [UK5099, 2-Cyano-3-(1-phenyl-1H-indol-3-yl)-2-propenoic acid], the “CD43+GPA+ cell output” value (EHT cells; day 3, EHT cells) is reported as “absence of bias” and the “decrease in CD43+CD45+ population” value (EHT cells; day 6, deriving from EHT cells) is reported as 2 fold.
